Measurements published in patent US20070122376A1, “Pheromones and method of preventing infestation of Contarinia nasturtii” (priority 2004, published 2007).

Assays:
[1] = system: male C. nasturtii; test: Wind tunnel assay of male response (landing on odour source); format: in vivo, Contarinia nasturtii; details: for landings on the odor source, response to single component: each component tested individually at the concentrations indicated (FIG. 4), N>=20; for males flying towards the odour source: single components tested individually
Description: Calling females were collected from the laboratory culture and submersed in batches in hexane (p.a. grade) for 15 min at room temperature. The supernatant was then decanted and concentrated to the highest concentration tested by blowing off the hexane with N2.
Wind tunnel experiments were performed in the 2nd to 4th hour of the photophase at 22° C. and 73% r.h. in a wind tunnel described in detail by Rauscher et al. (1984). Compounds were diluted in hexane (p.a. grade). For the bioassays, 10 p 1 of the stimulus to be tested was applied onto a piece of fitter paper (Chromatographiepapier “Schleicher & Schuell AG” Auer-Bittmann Soulié AG, Zurich, Switzerland, 69.2 gr/m2, 1 cm^2)which was then placed in the air stream at least 20 sec before the first male was tested. For each stimulus, a series of five males were tested individually, requiring a total of 5-10 min for each series. For each series, a new piece of filter paper was loaded with the respective stimulus.
Males were kept individually in glass tubes (10 cm, 15 mm i.d.) closed at one end with a piece of screen (mesh size 1×1 mm) until they were tested. With these tubes they were transferred into the wind tunnel, where the tube was placed on a pole in horizontal position with the opening upwind, at a distance of 130 cm downwind from the odor source. Time recording was then started and the following steps recorded. Activation by wing-fanning, take off, directed flight towards the odor source, flights closer than 30 cm from the source (“close in”), landing on the source or elsewhere. The test was stopped when no activity or take off was registered during […] or when the insect landed elsewhere.
Of the recorded parameters only the number of successful landings on the source were analyzed

[2] = system: male antenna; test: GC-EAD electrophysiological recording of male antennal response; design: species or system Contarinia nasturtii; details: natural peaks of ovipositor extract, identified by mass spectra and coelution with synthetics
Description: The pots with infested soil were put in glass cages (28×28×33 cm) and kept at L/D 18/6, 25° C., and RH 70% for the adults to emerge. After emergence, males and females were transferred to separate cages. Females were kept under the conditions mentioned and males were kept at L/D 18/6, 15° C., and RH 75%. […] The ovipositors were collected in a vial kept in liquid nitrogen and then extracted for 1-2 min redistilled hexane (LabScan). Extracts were kept in sealed glass capillaries at −18° C. until use.
Male antennal response to ovipositor extracts was analyzed by gas chromatography 25 with electroantennographic detection (GC-EAD). The GC used was a Hewlett Packard 6890 GC with flame ionization detection and an Innowax column (30m×0.25 mm ID, Hewlett Packard, USA). The column temperature was programmed from 80° C. (2 min hold) to 230° C. at 10° C./min. The antennal recordings were made using a Plexiglass holder with two wells connected to an amplifier by gold wire electrodes (JoAC, Lund, Sweden; Zhang et al., 1997; Hillbur, 2001). Male insects were mounted in the holder as described by Hillbur et al. (2000). […] Antennal signals were amplified (JoAC) before they were recorded and analyzed with ElectroAntennoGraphy software (Syntech, Hilversum, The Netherlands).

| SMILES | most attractive concentration of (2S)-acetoxyundecane in blend ([1]; blends with 1.5 ng/dispenser (2S,9S)- and 3.0 ng/dispenser (2S,10S)-diacetoxyundecane) [ng/dispenser] | effect of higher concentrations of (2S)-acetoxyundecane on proportion of male landing ([1]; concentrations higher than 0.03 ng/dispenser in blend with 1.5 ng 2S,9S and 3.0 ng 2S,10S) | landings on the odor source, response to single component [1] | males flying towards the odour source [1] | male antennal response (GC-EAD) [2] |
| --- | --- | --- | --- | --- | --- |
| CCCCCCCCC[C@H](C)OC(C)=O [(2S)-acetoxyundecane, (2S)-Acetoxyundecane] | 0.03 | inhibitory | 0 | no males flew towards the odour source |  |
| CC[C@@H](CCCCCC[C@H](C)OC(C)=O)OC(C)=O [(2S,9S)-diacetoxyundecane, (2S,9S)-Diacetoxyundecane] |  |  | 0 | no males flew towards the odour source | EAD-active |
| CC(=O)O[C@@H](C)CCCCCCC[C@H](C)OC(C)=O [(2S,10S)-diacetoxyundecane, (2S,10S)-Diacetoxyundecane] |  |  | 0 | no males flew towards the odour source | EAD-active |
